Measurements from article PMC10045663, “Synthesis, In Vitro Biological Evaluation of Antiproliferative and Neuroprotective Effects and In Silico Studies of Novel 16E-Arylidene-5α,6α-epoxyepiandrosterone Derivatives” (Biomedicines, 2023).

Experiments:
Type in all cases: cell-based
[1] = tested on: NHDF cells (normal human dermal fibroblasts); assay: MTT cell proliferation assay, NHDF cells; conditions: 72 h, non-tumoral cells, read-out: Estimated IC50, NHDF
[2] = tested on: MCF-7 cells (estrogen-responsive breast cancer cells); assay: MTT cell proliferation assay, MCF-7 cells; conditions: 72 h
[3] = tested on: all cell lines (NHDF, PNT1A, N27, LNCaP, PC-3, MCF-7); assay: MTT preliminary screening, all cell lines taken together; conditions: 50 µM, 72 h
Method: LNCaP, PC-3, MCF-7, PNT1A, N27, and NHDF cells were obtained from the American Type Culture Collection (ATCC; Manassas, VA, USA) and were cultured in 75 cm^2 culture flasks at 37 °C in a humidified air incubator with 5% CO2. LNCaP, PC-3, PNT1A, and N27 cells, respectively, were cultured in RPMI 1640 medium (Sigma-Aldrich, Inc. St. Louis, MO, USA) with 10% fetal bovine serum (FBS; Sigma-Aldrich, Inc. St. Louis, MO, USA) and 1% of the antibiotic mixture of 10,000 U/mL penicillin G and […] streptomycin (Sp, Sigma-Aldrich, Inc. St. Louis, MO, USA). MCF-7 cells were cultured in DMEM medium (Sigma-Aldrich, Inc. St. Louis, MO, USA) supplemented with 10% fetal bovine serum (FBS; Sigma-Aldrich, Inc. St. Louis, MO, USA) and 1% antibiotic/antimycotic (10,000 U/mL penicillin G, […] streptomycin, and 25 µg/mL amphotericin B: Ab, Sigma-Aldrich, Inc. St. Louis, MO, USA). Finally, NHDF cells were cultured in RPMI 1640 medium supplemented with 10% FBS, 2 mM L-glutamine, 10 mM HEPES, 1 mM sodium pyruvate, and 1% of the antibiotic/antimycotic Ab, and these cells were used in passages 10th to 14th. For all cell types, the medium was renewed every 2 days until cells nearly reached the confluence state. When cells reach approximately 90–95% confluence, they are gently detached by trypsinization (trypsin-EDTA solution: 0.125 g/L of trypsin and 0.02 g/L of EDTA). Before each experiment, viable cells were counted in a Neubauer chamber by a trypan-blue exclusion assay and adequately diluted in the appropriate complete cell culture medium.
All tested compounds were dissolved in dimethyl sulfoxide (DMSO; Sigma-Aldrich, Inc. St. Louis, MO, USA) at a concentration of 10 mM and stored at 4 °C. From the mother-solutions, the diluted solutions of the compounds, in different concentrations, were prepared in the respective complete culture medium before each experiment.
After reaching a confluence state, cells were trypsinized and counted by the trypan-blue exclusion assay and then seeded with an initial density of 2 × 10^4 cells/mL in 96-well culture plates (Nunc, Apogent, Denmark) and left to adhere and grow for 48 h. Subsequently, the medium was removed, and the cells were treated with compound solutions (10 and 50 µM for preliminary studies and 0.01, 0.1, 1, 10, 50, and 100 µM for concentration-response studies) in complete culture medium for 72 h. 5-Fluorouracil (5-FU) was used as a positive control, and untreated cells were used as the negative control. Compounds leading to cell proliferation relative to control clearly below 50%, at 10 µM, or clearly below 25%, at 50 µM, in the screening studies were selected to concentration-response studies in tumoral cell lines. Each experiment was performed in quadruplicate and independently at least two times. The in vitro antiproliferative effects were evaluated by the MTT assay (Sigma-Aldrich, Inc. St. Louis, MO, USA). After the incubation period, the medium was removed, and 100 µL of phosphate buffer saline (PBS, NaCl 137 mM; KCl 2.7 mM; Na2HPO4 10 mM; and KH2PO4 1.8 mM in deionized water with a pH adjusted to 7.4) were used to wash the cells. Then, 100 µL of the MTT solution (5 mg/mL) was prepared in the appropriate serum-free medium and added to each well, followed by incubation for 4 h at 37 °C. Hereafter, the MTT containing medium was removed, and the formazan crystals were dissolved in DMSO. Then, the absorbance was measured at 570 nm using a xMarkTM microplate spectrophotometer from BIO-RAD Laboratories. Cell viability values were expressed as percentages relative to the negative control.

[4] = tested on: LNCaP cells (androgen-dependent prostatic cancer); assay: MTT cell proliferation assay, LNCaP cells; conditions: 72 h
MCF-7 cells = assay: Immunocytochemistry assay, Ki67 staining; conditions: 48 h
Method: MCF-7 cells were trypsinized and counted by the trypan-blue exclusion assay, and then cells were seeded with an initial density of 3 × 10^4 cells/mL in 24-well culture plates (Nunc, Apogent, Denmark) containing circular coverslips of 10 mm diameter. Following seeding (48 h), cells were treated with 1 and 10 µM concentrations of 5-FU, as positive controls, and steroid 19 for 48 h. Untreated cells were used as a negative control. After this period, photograph shots were acquired at an optical microscope coupled with a digital camera (Supplementary Material, S2). Subsequently, the medium was removed, and cells were fixed with 10% formalin (15 min, room temperature). After fixation, cells were washed three times with PBS, permeabilized, and blocked for non-specific binding sites for 1 h with 0.5% Triton X-100 and 6% BSA at room temperature. Cells were incubated at 4 °C with 30 μL/coverslip of primary antibody, rabbit polyclonal anti-Ki67 (1:50, Abcam Plc.), prepared in 0.3% BSA and 0.1% Triton X-100, overnight. Then, cells were washed three times with PBS and incubated for 1 h, at room temperature, with 30 μL/coverslip of a solution containing the secondary antibody, Alexa Fluor 488 donkey anti-rabbit (1:200, Life Technologies), and the nuclear marker Hoechst-33342 (1:500, Life Technologies) prepared in PBS. Lastly, the coverslips were washed three times with PBS, mounted on a drop of the fluoroshield mounting medium (Abcam, Plc.) on a microscope slide, and left to dry for 24 h. Photomicrographs were taken using an Axio Imager A1 microscope (Carl Zeiss, Göttingen, Germany) with the 40 × objective.

[5] = tested on: PNT1A (normal prostate cells); assay: MTT cell proliferation assay, PNT1A cells; conditions: 72 h, non-tumoral cells, read-out: Estimated IC50, PNT1A
[6] = tested on: PC-3 cells (androgen-independent prostatic cancer); assay: MTT cell proliferation assay, PC-3 cells; conditions: 72 h

“(E)-16-(2,3-Dichlorobenzylidene)-3-hydroxy-5α ,6α -epoxy-10,13-dimethyl-1,3,4,7,8,9,10,11,12,13,15,16-dodecahydro-2H-cyclopenta[α ]phenanthren-17(14H)-one [Compound 19]” was tested. Which IC50 [1] did it give?
The IC50 was 18.7 µM.

What about the “decrease in cell proliferation” value ([2]; MCF-7, 10 µM) of the same substance?
Its value is “around 75%”.

What about the “cell proliferation relative to the control” value ([2]; MCF-7, 50 µM) of the same substance?
Its value is ~0%.

And the “decrease in cell proliferation” value ([2]; MCF-7, 50 µM)?
Its value is ~100%.

And the IC50 ([2]; MTT, tumoral cells, read-out: Estimated IC50, MCF-7)?
Its IC50 is 3.47 µM.

What about the relative cell proliferation [3] of the same substance?
Its relative cell proliferation is ≤ 50%.

And the “effect on LNCaP cell proliferation” value ([4]; LNCaP, 10 µM)?
Its value is “no relevant effects”.

What about the “decrease in LNCaP cell proliferation” value ([4]; LNCaP, 50 µM) of the same substance?
The value was “higher than 75%”.

And the IC50 ([4]; MTT, tumoral cells, read-out: Estimated IC50, LNCaP)?
The IC50 was 12.8 µM.

And the “Ki67-positive cells relative to control” value (MCF-7 cells; MCF-7, 1 µM)?
The value was “none of the compounds significantly affected”.

What about the “Ki67-positive cells relative to control” value (MCF-7 cells; MCF-7, 10 µM) of the same substance?
Its value is “statistically significant decrease”.

What about the IC50 [5] of the same substance?
The IC50 was 12.8 µM.

And the IC50 ([6]; MTT, tumoral cells, read-out: Estimated IC50, PC-3)?
Its IC50 is 19 µM.

What about the “decrease on cell proliferation relative to the control” value ([6]; PC-3, 50 µM) of the same substance?
The value was “higher than 75%”.
